Measurements published in patent publication US7235534B2, “Antisense strategy to modulate estrogen receptor response (ER α and/or ER β )” (Institut de Cardiologie de Montreal, priority 2001, dated 2007).

Tests used:
p38 MAPK [1] = assay: Western blot of p38 MAPK phosphorylation in PSMC; format: cell-based, porcine; conditions: for reversal of the effect of 17βE on p38 MAPK induced by PDGF-BB: antagonist 10^−7M
Experimental: (§1) Confluent PAEC and PSMC were starved for 7 hours in DMEM and antibiotics. Culture medium was removed, and cells were rinsed twice with ice-cold DMEM. PSMC were incubated on ice in DMEM with or without 17βE (10^−8M) for 30 min, incubated at 37° C. for 5, 10, 15 and 30 min, then brought back on ice. Cell were then rinsed with cold DMEM, incubated on ice in DMEM, bovine serum albumin (1 mg/ml), PDGF-BB (10 ng/ml) for 30 min, incubated at 37° C. for 5 min, and then brought back on ice. PAEC were incubated on ice in DMEM with or without 17βE (10^−7M) for 30 min, then incubated at 37° C. for 5, 10, 15 and 30 min and brought back on ice. […] Total proteins were prepared by the addition of 500 μl of lysis buffer containing phenylmethylsulfonyl fluoride 1 mM, leupeptin 10 μg/ml, aprotinin 30 μg/ml, and NaVO3 1 mM (Sigma). Plates were incubated at 4° C. for 30 min and scraped, and the protein concentration was determined with a Bio-Rad protein kit (Bio-Rad, Hercules, Calif.). Same protein quantity for each cell type and condition were dissolved in Laemmli's buffer, boiled for 5 min in reducing conditions, separated by a 10% gradient SDS-PAGE (Protean II kit; Bio-Rad), and transblotted onto a 0.45-μm polyvinylidene difluoride membranes (Millipore Corp., Bedford, Mass.). The membranes were blocked in 5% Blotto-TTBS (5% nonfat dry milk; Bio-Rad), 0.05% Tween 20, 0.15 M NaCl, 25 mM Tris-HCl, pH 7.5) for 1 h at room temperature with gentle agitation and incubated overnight at 4° C. in 0.5% Blotto-TTBS with the addition of an anti-phospho p42/44 MAPK or an anti-phospho p38 MAPK rabbit polyclonal antiserums (α-pp42/44; dilution of 1:10 000, and α-pp38; dilution 1:5000, New England BioLabs, Beverly, Mass.). Membranes were washed with TTBS, and incubated at room temperature with an anti-rabbit IgG antibody coupled to horseradish peroxidase (dilution 1:10 000–1:20 000, Santa Cruz Biotechnology, Santa Cruz, Calif.) in 0.5% Blotto-TTBS for 30 min. […] Kaleidoscope molecular weight and SDS-plyacrylamide gel electrophoresis broad range marker proteins (Bio-Rad) were used as standards for SDS-plyacrylamide gel electrophoresis. Digital image densitometry (PDI Bioscience, Aurora, ON) was performed on x-ray film to determine relative percentages of p42/44 and p38 MAPK phosphorylation.
(§2) Confluent PAEC and PSMC were preteated with or without antisense sequences as described above for Western Blot analysis. Cells were rinsed twice with ice-cold DMEM. PSMC and PAEC were stimulated with or without 17βE (10^−8 mol/L) as previously described (Geraldes P). Briefly, PSMC were incubated on ice in DMEM with or without 17βE (10^−8 mol/L) for 30 minutes, incubated at 37° C. for 30 minutes, then brought back on ice. Cells were then rinsed with cold DMEM, incubated on ice in DMEM, bovine serum albumin (1 mg/mL), PDGF-BB (10 ng/mL) for 30 minutes, incubated at 37° C. for 5 and 30 minutes, and then brought back on ice. PAEC were incubated on ice in DMEM with or without 17βE (10^−8 mol/L) for 30 minutes, then incubated at 37° C. for 5 and 30 minutes and brought back on ice. Total proteins were prepared-by the addition of 500 μL of lysis buffer, incubated at 4° C. for 30 minutes and scraped to collect the proteins. Same quantity of protein was separated by a 10% gradient SDS-PAGE (Protean II kit; Bio-Rad), and transblotted onto a 0.45-μm polyvinylidene difluoride membranes (Millipore Corp.). The membranes were blocked for 1 hour at room temperature with gentle agitation and incubated overnight at 4° C. in 0.5% Blotto-TTBS with the addition of an antiphospho p42/44 MAPK or an antiphospho p38 MAPK rabbit polyclonal antiserums (α-pp42/44; dilution of 1:10000, and α-pp38; dilution 1:5 000, New England BioLabs, Beverly, Mass.). Membranes were washed with TTBS, and incubated at room temperature with an anti-rabbit IgG antibody coupled to horseradish peroxidase (dilution 1:10 000–1:20 000, Santa Cruz Biotechnology) in 0.5% Blotto-TTBS for 30 minutes. […]

p38 MAPK [2] = assay: Western blot of p38 MAPK phosphorylation in PAEC; format: cell-based, porcine; conditions: for inhibition of p38 MAPK phosphorylation induced by a 30 minutes treatment with 17βE: antagonist 10^−7M 5 min prior to 17βE 10^−8M
Experimental: as §1
as §2, with “Corp.).” for “Corp.). The membranes were blocked for 1 hour at room temperature with gentle agitation and incubated overnight at 4° C. in 0.5% Blotto-TTBS with the addition of an antiphospho p42/44 MAPK or an antiphospho p38 MAPK rabbit polyclonal antiserums (α-pp42/44; dilution of 1:10000, and α-pp38; dilution 1:5 000, New England BioLabs, Beverly, Mass.). Membranes were washed with TTBS, and incubated at room temperature with an anti-rabbit IgG antibody coupled to horseradish peroxidase (dilution 1:10 000–1:20 000, Santa Cruz Biotechnology) in 0.5% Blotto-TTBS for 30 minutes.”

[3] = system: Porcine smooth muscle cells (PSMC); assay: Chemotactic assay on PSMC (modified Boyden chamber); format: cell-based; conditions: for reversal of the anti-chemotactic effect of 17βE on PSMC: antagonist 10^−7M before 17βE 10^−8M, PDGF-BB 10 ng/ml
Experimental: Cell migration was evaluated using a modified Boyden 48-well microchamber kit (NeuroProbe, Cabin John, MD.). Near confluent EC and PSMC were rinsed with DMEM and trypsinized. Cells were resuspended in DMEM, 5% FBS, and antibiotics, and a cell count was obtained. […] ER antagonists were added 5 minutes before 17βE. Cells were harvested by trypsinization and resuspended in DMEM, 1% FBS, and antibiotics at a concentration of 5×10^5 cells/ml. […] The two sections of the system were separated by a porous polycarbonate filter (5-μm pores), pre-treated with a gelatine solution (1.5 mg/ml), and assembled. Five hours post incubation at 37° C., the nonmigrated cells were scraped with a plastic policeman, and the migrated cells were stained using a Quick-Diff solution. The filter was then mounted on a glass slide, and migrated cells were counted using a microscope adapted to a video camera to obtain a computer-digitized image.
Cell migration was evaluated using a modified Boyden 48-well microchamber kit (NeuroProbe, Cabin John, MD.). Near confluent PAEC and PSMC were rinsed with DMEM and trypsinized. Cells were resuspended in DMEM, 5% FBS, and antibiotics, and a cell count was obtained. PAEC and PSMC were seeded at 2.5×10^5 cells/well of 6-well tissue culture plates; stimulated for 24 hours in DMEM, 5% FBS, and antibiotics with or without antisense oligomers (10^−6 mol/L) and starved for 48 hours in DMEM, 0.1% FBS, and antibiotics with or without antisense oligomers (10^−6 mol/L daily) with or without 17βE (10^−8 mol/L). Cells were harvested by trypsinization and resuspended in DMEM, 1% FBS, and antibiotics at a concentration of 5×10^5 cells/mL. Fifty μL of this cell suspension with or without antisense oligomers (10^−6 mol/L) treated with or without 17βE (10^−8 mol/L) was added in the higher-chamber of the modified Boyden chamber apparatus, and the lower chamber was filled with DMEM, 1% FBS, antibiotics plus the desired concentration of agonist either 17βE (10^−8 mol/L) or platelet-derived growth factor-BB (PDGF-BB). The 2 sections of the system were separated by a porous polycarbonate filter (5-μm pores size), pretreated with a gelatine solution (1.5 mg/mL), and assembled. Five hours postincubation at 37° C., the non-migrated cells were scraped with a plastic policeman, and the migrated cells were stained using a Quick-Diff solution (Shandon Inc). The filter was then mounted on a glass slide, and migrated cells were counted using a microscope adapted to a video camera to obtain a computer-digitized image.

Question: With `CC/C(=C(\c1ccc(O)cc1)c1ccc(OCCN(C)C)cc1)c1ccccc1` [4-OHT, 4-OH-Tamoxifen] as the molecule, how does the “reversal of the effect of 17βE on p38 MAPK induced by PDGF-BB” value (p38 MAPK [1]; PDGF-BB 30 min) read?
Answer: 53%

Question: What about the “inhibition of p38 MAPK phosphorylation induced by a 30 minutes treatment with 17βE” value (p38 MAPK [2]) of the same molecule?
Answer: 81%

Question: And the “reversal of the anti-chemotactic effect of 17βE on PSMC” value [3]?
Answer: reversed completely

Question: How did the “reversal of PDGF-BB-increased p38 MAPK phosphorylation” value (p38 MAPK [1]; 17βE 10^−8 mol/L 30 minutes, Example 2) turn out when `C[C@]12CC[C@@H]3c4ccc(O)cc4CC[C@H]3[C@@H]1CC[C@@H]2O` [17βE, 17-beta-estradiol] was run?
Answer: reversed

Question: What about the “inhibition of PDGF-BB-mediated p38 MAPK phosphorylation” value (p38 MAPK [1]; 17βE (10^−8M) pretreatment 30 minutes, PDGF-BB 30 min) of the same molecule?
Answer: 85%

Question: What about the “reduction of PDGF-BB induced phosphorylation of p38 MAPK” value (p38 MAPK [1]; 17βE for 30 min) of the same molecule?
Answer: 85%

Question: And the “change in basal phosphorylation of p38 MAPK” value (p38 MAPK [1]; substance alone, data not shown)?
Answer: did not observe any change

Question: What about the “time of maximum stimulation of p38 MAPK phosphorylation” value (p38 MAPK [2]; 17βE 10^−8M) of the same molecule?
Answer: 30 min

Question: And the “increase of p38 MAPK phosphorylation” value (p38 MAPK [2]; 17βE 10^−8 mol/L, 30 minutes, Example 2)?
Answer: 254%

Question: And the “inhibition of the chemotactic effect of PDGF-BB (10 ng/mL) on PSMC” value ([3]; 17βE 1^−8 mol/L as printed, Example 2)?
Answer: inhibited completely

Question: And the “inhibition of the chemotactic effect of PDGF-BB (10 ng/ml) on PSMC” value ([3]; 17βE 10^−8M, Example 1)?
Answer: inhibited completely

Question: With `O=C(c1ccc(OCN2CCCCC2)cc1)c1c(-c2ccc(O)cc2)sc2cc(O)ccc12` [Ral, Raloxifen] as the molecule, how does the “reversal of the effect of 17βE on p38 MAPK induced by PDGF-BB” value (p38 MAPK [1]; PDGF-BB 30 min) read?
Answer: 32%

Question: What about the “inhibition of p38 MAPK phosphorylation induced by a 30 minutes treatment with 17βE” value (p38 MAPK [2]) of the same molecule?
Answer: 98%

Question: What about the “reversal of the anti-chemotactic effect of 17βE on PSMC” value [3] of the same molecule?
Answer: reversed completely

Question: Which results are given for `CC/C(=C(\c1ccccc1)c1ccc(OCCN(C)C)cc1)c1ccccc1` [Tam, Tamoxifen]?
Answer: reversal of the effect of 17βE on p38 MAPK induced by PDGF-BB (p38 MAPK [1]; PDGF-BB 30 min): 51%; inhibition of p38 MAPK phosphorylation induced by a 30 minutes treatment with 17βE (p38 MAPK [2]): 84%; reversal of the anti-chemotactic effect of 17βE on PSMC [3]: reversed completely
